Experimental data published in patent US5739319A, “Phthalocyanine or naphthalocyanine derivative” (Orient Chemical Industries, Ltd., priority 1995, dated 1998).

Key:
[1] = Solubility at room temperature; format: physicochemical; conditions: for Solubility, Acetone: in words
Description: Then, solubility at room temperature of the resulting compound is measured.

[2] = background statement, in words; cited from earlier work

Row | Substance | Solubility, Acetone [1] | Solubility, Methanol [1] [%] | Solubility, Water [1] [%] | solubility in an organic solvent [2] | Solubility, DMF [1] [%] | Solubility, Dilute aqueous alkaline solution [1] [%] | water-solubility [2]
1 | tetrakis(sulfobenzamide) phthalocyanine [Example 2] | insoluble | > 5 | > 10 |  |  |  | 
2 | C.I. Solvent Blue-70 |  |  |  | soluble in an organic solvent |  |  | 
3 | tetrakis(sulfobenzamide) copper naphthalocyanine [Example 5] | insoluble | < 0.1 |  |  | > 2.0 | < 1.5 | 
4 | tetrakis(sulfobenzamide) copper phthalocyanine [Example 1] | insoluble | > 5 | > 10 |  |  |  | 
5 | Tetrasulfonic acid copper phthalocyanine [C.I. Acid Blue-249] |  |  |  |  |  |  | insufficient
6 | tetrakis(sulfobenzamide) nickel naphthalocyanine [Example 4] | insoluble | < 0.1 |  |  | > 2.0 | < 1.5 | 
